# Values of other authors, collected in patent US11596622B2, “Mazindol treatment for heroin dependence and substance use disorder” (NLS Pharmaceutics AG, priority 2017, dated 2023).
# Settings: Nakashima et al., 2004; cited from earlier work
smiles,measurement,value
"OC1(c2ccc(Cl)cc2)c2ccccc2C2=NCCN21 (stereo not shown) [Mazindol, 5-(4-chlorophenyl)-2,5-dihydro-3 H-imadazo[2,1-a]isoindol-5-ol]",stability (hydrolysis to Met),hydrolysis of mazindol at moderate temperatures in neutral and alkaline aqueous solutions
